Results taken from publication PMC11594608, “Sulfonamide-Based Inhibition of the β-Carbonic Anhydrase from A. baumannii, a Multidrug-Resistant Bacterium” (International Journal of Molecular Sciences, 2024).
Like-named read-outs stand apart in the source and are kept apart here.

Legend:
βAbauCA (CanB) = biological target: T1, βAbauCA (CanB) (Acinetobacter baumannii, UniProt A0A7U3Y636); test: stopped-flow CO2 hydrase assay; type: biochemical; conditions: CO2 substrate, […] TRIS pH […] NaClO4, […] °C, […] min preincubation
T1 construct: gene AB57_1063; oligomer not determined here
T1 sequence (A0A7U3Y636 1-204): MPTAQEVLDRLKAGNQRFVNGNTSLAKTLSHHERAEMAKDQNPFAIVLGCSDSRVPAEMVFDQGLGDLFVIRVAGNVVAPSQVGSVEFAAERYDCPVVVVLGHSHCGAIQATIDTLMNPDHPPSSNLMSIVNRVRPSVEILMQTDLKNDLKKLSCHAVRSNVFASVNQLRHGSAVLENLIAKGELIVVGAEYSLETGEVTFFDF

hCA I = biological target: T2, hCA I (Homo sapiens, UniProt P00915); test: stopped-flow CO2 hydrase assay; type: biochemical; conditions: read-out: KI (nM) ^a / CA I
T2 construct: gene CA1
T2 sequence (P00915 2-261): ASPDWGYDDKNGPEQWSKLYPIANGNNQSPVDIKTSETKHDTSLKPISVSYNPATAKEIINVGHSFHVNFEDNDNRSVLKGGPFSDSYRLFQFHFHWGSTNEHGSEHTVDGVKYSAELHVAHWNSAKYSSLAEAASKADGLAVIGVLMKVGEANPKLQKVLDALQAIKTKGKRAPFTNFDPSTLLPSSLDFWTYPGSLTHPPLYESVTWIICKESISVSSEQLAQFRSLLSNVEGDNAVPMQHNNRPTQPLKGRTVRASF

In the case of `Nc1ccc(S(=O)(=O)NCc2ccc(S(N)(=O)=O)cc2)cc1` [compound 23, 23], the Ki (βAbauCA (CanB)) is reported as 317 nM.
`NS(=O)(=O)c1cc(Cl)cc(Cl)c1O` [compound 10, 10] was tested, and the Ki (βAbauCA (CanB)) was 4160 nM.
`Nc1ccc(S(=O)(=O)Nc2ccc(S(N)(=O)=O)cc2)cc1` [compound 22, 22] showed a Ki (βAbauCA (CanB)) of 276 nM.
`Nc1cc(Cl)c(S(N)(=O)=O)cc1S(N)(=O)=O` [compound 12, 12] gave a Ki (βAbauCA (CanB)) of 1200 nM.
Work on `Nc1ccc(S(=O)(=O)NCCc2ccc(S(N)(=O)=O)cc2)cc1` [compound 24, 24] yielded a Ki (βAbauCA (CanB)) of 326 nM.
`Cc1ccc(-c2cc(C(F)(F)F)nn2-c2ccc(S(N)(=O)=O)cc2)cc1` [CLX] gave a Ki (βAbauCA (CanB)) of 270 nM.
In the case of `NS(=O)(=O)c1ccc(O)cc1` [compound 15, 15], the Ki (βAbauCA (CanB)) is reported as 625 nM.
Work on `NS(=O)(=O)c1nnc(NS(=O)(=O)c2ccccc2)s1` [BZA, Benzolamide] yielded a Ki (βAbauCA (CanB)) of 113 nM.
For `CCN1CCCC1CNC(=O)c1cc(S(N)(=O)=O)ccc1OC` (stereo not shown) [SLP], the Ki (βAbauCA (CanB)) was 6860 nM.
`CC1(C)O[C@@H]2[C@@H](CO[C@@]3(COS(N)(=O)=O)OC(C)(C)O[C@@H]23)O1` [TPM, topiramate] was tested, and the Ki (βAbauCA (CanB)) was 2770 nM.
With `NS(=O)(=O)c1cccc(S(N)(=O)=O)c1` [compound 3, 3] the Ki (hCA I; CO2 substrate, […] HEPES pH […] °C, […] min preincubation) was 79 nM.
For `NS(=O)(=O)c1cc2c(cc1Cl)NCNS2(=O)=O` [HCT], the Ki (βAbauCA (CanB)) was 875 nM.
`CC(=O)N=c1sc(S(N)(=O)=O)nn1C` [MZA] was tested, and the Ki (βAbauCA (CanB)) was 249 nM.
`CC(=O)Nc1nnc(S(N)(=O)=O)s1` [AAZ, 5-acetamido-1,3,4-thiadia-zole-2-sulphonamide] gave a Ki (βAbauCA (CanB)) of 191 nM.
`NS(=O)(=O)c1cc(Cl)c(Cl)c(S(N)(=O)=O)c1` [DCP] showed a Ki (βAbauCA (CanB)) of 472 nM.
For `Nc1nnc(S(N)(=O)=O)s1` [compound 13, 13], the Ki (βAbauCA (CanB)) was 444 nM.
`NS(=O)(=O)c1ccc(C(=O)O)cc1` [compound 18, 18] showed a Ki (βAbauCA (CanB)) of 547 nM.
`O=C1NS(=O)(=O)c2ccccc21` [SAC] was tested, and the Ki (βAbauCA (CanB)) was 7490 nM.
`NS(=O)(=O)c1ccc(CCO)cc1` [compound 17, 17] was tested, and the Ki (βAbauCA (CanB)) was 715 nM.
`Cn1nc(S(N)(=O)=O)sc1=N` [compound 14, 14] was tested, and the Ki (βAbauCA (CanB)) was 604 nM.
Work on `Cc1onc(-c2ccccc2)c1-c1ccc(S(N)(=O)=O)cc1` [VLX] yielded a Ki (βAbauCA (CanB)) of 215 nM.
`Cc1ccc(S(N)(=O)=O)cc1` [compound 4, 4] was tested, and the Ki (hCA I) was 78500 nM and the Ki (βAbauCA (CanB)) was 1480 nM.
For `NS(=O)(=O)c1ccc(CO)cc1` [compound 16, 16], the Ki (βAbauCA (CanB)) was 700 nM.
Molecule `Nc1ccc(S(=O)(=O)Nc2nnc(S(N)(=O)=O)s2)cc1` [compound 20, 20] has a Ki (βAbauCA (CanB)) of 344 nM.
`Nc1nccc(Nc2ccc(S(N)(=O)=O)cc2)n1` [compound 19, 19] was tested, and the Ki (βAbauCA (CanB)) was 407 nM.
Work on `CCN[C@H]1C[C@H](C)S(=O)(=O)c2sc(S(N)(=O)=O)cc21` [DZA] yielded a Ki (βAbauCA (CanB)) of 232 nM.
In the case of `NS(=O)(=O)c1ccc(N2CCCCS2(=O)=O)cc1` [SLT], the Ki (βAbauCA (CanB)) is reported as 542 nM.
Molecule `CCN[C@H]1CN(CCCOC)S(=O)(=O)c2sc(S(N)(=O)=O)cc21` [BRZ, Brinzolamide] has a Ki (βAbauCA (CanB)) of 170 nM.
In the case of `Nc1cc(C(F)(F)F)c(S(N)(=O)=O)cc1S(N)(=O)=O` [compound 11, 11], the Ki (βAbauCA (CanB)) is reported as 928 nM.
For `NS(=O)(=O)Cc1noc2ccccc12` [ZNS], the Ki (βAbauCA (CanB)) was 2340 nM.
